# Test results reported in PMC7168933, “Design, Synthesis and Biochemical Evaluation of Novel Ethanoanthracenes and Related Compounds to Target Burkitt’s Lymphoma” (Pharmaceuticals, 2020).
# Like-named read-outs stand apart in the source and are kept apart here.
# How the values were obtained:
# [1] = system: MUTU-1 Burkitt's lymphoma cell line; assay: FITC Annexin V/PI FACS analysis of apoptosis in MUTU-I cells; format: cell-based; conditions: 24 h
# Method: (§1) BL cells DG-75 and MUTU-1 (750,000) were treated with the specified concentration of the selected compound and incubated for 24 h (MUTU-1) or 48 h (DG-75) with taxol as the positive control. Samples were harvested by centrifugation and the pellets were rinsed with 0.5 mL of Ca^2+ Annexin V binding buffer (0.1 M HEPES, pH 7.4; 1.4 M NaCl; 25 mM CaCl2) each and pelleted again by centrifugation. Supernatants were decanted and the pellets were suspended again in 50 µL FITC Annexin V (diluted 1:33 in Ca^2+ Annexin V binding buffer), the samples were then placed on ice and incubated for 10 min in the dark. After the incubation period 0.5 mL of Ca^2+ Annexin V binding buffer was added and samples were pelleted by centrifugation. The supernatant was decanted and the pellet was suspended in PI solution (500 µL; 0.5 µg/mL). After 1 h, the samples were recorded using a CyAn ADP flow cytometer (Beckman Coulter Inc., Brea, CA, USA). 10,000 cells were analysed with the Flowjo software package. Taxol was used as a positive control for cell death.
# [2] = system: DG-75 Burkitt's lymphoma cell line; assay: FITC Annexin V/PI FACS analysis of apoptosis in DG-75 cells; format: cell-based; conditions: 48 h
# Method: as §1
# [3] = system: MUTU-1 Burkitt lymphoma cell line (EBV+); conditions: 24 h
# [4] = system: DG-75 Burkitt lymphoma cell line (EBV−, chemoresistant); conditions: 48 h
# [5] = system: MUTU-1 Burkitt lymphoma cell line (EBV+); assay: cells; conditions: Mutu-1, 24 h; for IC50: read-out: IC50 MUTU-I 24 h; for viability at 1 µM: read-out: MUTU-1 Cell Viability % 1 μM, 1 μM, 24 h; for viability at 10 µM: read-out: MUTU-1 Cell Viability % 10 μM, 10 μM, 24 h
# [6] = system: DG-75 Burkitt lymphoma cell line (EBV−, chemoresistant); assay: cells; conditions: Homo sapiens, DG-75, 48 h; for viability at 1 µM: read-out: DG-75 Cell Viability % 1 μM, 1 μM, 48 h; for viability at 10 µM: read-out: DG-75 Cell Viability % 10 μM, 10 μM, 48 h; for IC50: read-out: IC50 DG-75 48 h
# [7] = HPLC stability study in phosphate buffers; format: physicochemical
# Method: The HPLC stability studies for compound 16a were performed using a Symmetry® column (C18, 5 µm, 4.6 × 150 mm), detector Waters 2487 Dual Wavelength Absorbance, HPLC pump: Waters 1525 binary and Autosampler: Waters 717 plus (Waters Corporation, Milford, MA, USA). Samples were detected at wavelength of 254 nm. The chromatography was performed with the following optimised conditions: mobile phase: (acetonitrile (80%): water (20%)), run time: 10 min, flow rate: 1 mL/min, with detection at 254 nm. Compound 16a (5 mg) was dissolved in the mobile phase (10 mL) to provide the stock solution for the experiment. The phosphate buffers were prepared following the British Pharmacopoeia monograph 2019 at the selected pH 4, pH 7.4 and pH 9. To a volume of the appropriate buffer (1 mL), stock solution (30 μL) was added, and the solution was shaken and then used immediately for the experiment. Samples of the solution were then analysed over the following 48 h period at selected time intervals (t = 0 min, 5 min, 30 min, 60 min, 90 min, 120 min, 24 h and 48 h).
Structure (SMILES),apoptosis in MUTU-I at 1 µM [1],apoptosis in MUTU-I at 10 µM [1],apoptosis in DG-75 at 1 µM [2],apoptosis in DG-75 at 10 µM [2],DG-75 Cell Viability % 10 μM [4],IC50 [5],viability at 1 µM [5],viability at 1 µM [6],viability at 10 µM [6],IC50 [6],melting point,cell viability in MUTU-I cell line (1 and 10 μM together or concentration not stated) [3],DG-75 Cell Viability % 1 μM [4],viability at 10 µM [5],further results
"O=[N+]([O-])/C=C/c1c2ccccc2cc2ccccc12 [Compound 12a, (E)-9-(2-nitrovinyl)anthracene]",little effect,90%,10%,82%,14.0%,2570 nM,81.9%,94.6%,< 14%,2080 nM,,,,,MUTU-1 Cell Viability % 10 μM [3]: 5.9%
"C/C(=C\C12c3ccccc3C(c3ccccc31)C1C(=O)OC(=O)C12)[N+](=O)[O-] (stereo not drawn) [Compound 13b, (E)-9-(2-Nitroprop-1-en-1-yl)-9,10-dihydro-9,10-[3,4]furanoanthracene-12,14-dione]",,,,,,,11.7%,1%,0.47%,,256 to 258 °C,7–24%,1.1%,7.2%,
"O=C1NC(=O)C2C1C1c3ccccc3C2(/C=C/[N+](=O)[O-])c2ccccc21 (stereo not drawn) [Compound 13g, (E)-9-(2-Nitrovinyl)-9,10-dihydro-9,10-[3,4]epipyrroloanthracene-12,14-dione]",,,,,,,0.47%,1%,11.7%,,176 to 178 °C,,1.1%,7.2%,
"O=C1NC(=O)C2C1C1(Cl)c3ccccc3C2(C=C[N+](=O)[O-])c2ccccc21 (stereo not drawn) [Compound 13j, (E)-9-Chloro-10-(2-nitrovinyl)-9,10-dihydro-9,10-[3,4]epipyrroloanthracene-12,14-dione]",,,,90%,,250 nM,< 1%,12.1%,5.9%,780 nM,,0.4–13.5%,,0.62%,apoptosis in MUTU-I at 0.5 µM [1]: > 90%; MUTU-1 Cell Viability % 1 μM [3]: 0.70%; cell viability in DG-75 cell line (1 and 10 μM together or concentration not stated) [4]: 0.4–13.5%
"O=C1C2C3c4ccccc4C(C=C[N+](=O)[O-])(c4ccccc43)C2C(=O)N1c1ccccc1 (stereo not drawn) [Compound 16a, (E)-9-(2-Nitrovinyl)-13-phenyl-9,10-dihydro-9,10-[3,4]epipyrroloanthracene-12,14-dione]",over 80%,over 80%,,92%,,210 nM,10%,,1.1%,710 nM,,,< 6%,1.4%,"apoptosis in MUTU-I at 0.2 µM [1]: 46%; apoptosis in MUTU-I at 0.5 µM [1]: over 80%; apoptosis in DG-75 at lower concentrations ([2]; concentrations lower than 10 µM): < 5%; half-life at 14.6 µg/mL ([7]; pH 4 phosphate buffer, read-out: half-life (t½) at pH 4 (converted)): 11 h; half-life at 14.6 µg/mL ([7]; pH 7.4 phosphate buffer, read-out: half-life (t½) at pH 7.4 (converted)): 10.5 h; half-life at 14.6 µg/mL ([7]; pH 9 phosphate buffer, read-out: half-life (t½) at pH 9): > 24 h; MUTU-1 Cell Viability % 1 μM [3]: 10.3%"
"O=C1C2C(C(=O)N1c1ccccc1)C1(/C=C/[N+](=O)[O-])c3ccccc3C2(Cl)c2ccccc21 (stereo not drawn) [Compound 16d, (E)-9-Chloro-10-(2-nitrovinyl)-13-phenyl-9,10-dihydro-9,10-[3,4]epipyrroloanthracene-12,14-dione]",,,15%,44%,,220 nM,0.77%,< 14%,5.1%,590 nM,,0.4–13.5%,13.5%,0.41%,apoptosis in MUTU-I at 0.2 µM [1]: 63%; cell viability in DG-75 cell line (1 and 10 μM together or concentration not stated) [4]: 0.4–13.5%
"N#C/C=C/C12c3ccccc3C(c3ccccc31)C1C(=O)NC(=O)C12 (stereo not drawn) [Compound 23b, (E)-3-(12,14-Dioxo-9,10-[3,4]epipyrroloanthracen-9(10H)-yl)acrylonitrile]",,,,,54.1%,,79.4%,101%,54%,,289 to 300 °C,,,79%,
"N/N=C/C12c3ccccc3C(Cl)(c3ccccc31)C1C(=O)NC(=O)C12 (stereo not drawn) [Compound 23i, (E)-9-Chloro-10-(hydrazonomethyl)-9,10-dihydro-9,10-[3,4]epipyrroloanthracene-12,14-dione]",,,,,18.9%,,102%,85.8%,19%,,241 to 244 °C,,,106%,
"CC(=O)O[C@H]1C(=O)[C@@]2(C)[C@H]([C@H](OC(=O)c3ccccc3)[C@]3(O)C[C@H](OC(=O)[C@H](O)[C@@H](NC(=O)c4ccccc4)c4ccccc4)C(C)=C1C3(C)C)[C@]1(OC(C)=O)CO[C@@H]1C[C@@H]2O [Taxol, taxol, reference compound]",63%,87%,21%,73%,9.9%,320 nM,30.4%,48.8%,10%,1320 nM,,,,10%,MUTU-1 Cell Viability % 10 μM [3]: 9.8%
